SMILES strings stand for the structures.

One experiment has as its system human Peripheral Blood Mononuclear Cell (PMBC). Put plainly: PBMC assay: cytokine (IFN-α) stimulation at 24 hours. The experiment is classed as cell-based. To be noted: Homo sapiens, PBMC, 24 h, IFN-α in supernatant (Luminex), three fold above background, read-out: MEC = minimum concentration for induction of IFN-alpha = 3-fold over background. The procedure:
Assays were conducted to determine cytokine stimulation at 24 hours from human Peripheral Blood Mononuclear Cell (PMBC) using the compounds of the present invention. The assays were run in duplicate, with 8-point, half-log dilution curves. The compounds of the present invention were diluted from 10 mM DMSO solution. Cell supernatants are assayed directly for IFNα and 1:10 dilution for TNFα. The assays were performed in a similar fashion as described in Bioorg. Med. Chem. Lett. 16, 4559, (2006). Specifically, cryo-preserved PBMCs were thawed and seeded 96 well plates with 750,000 cells/well in 190 μL/well cell media. The PBMCs were then incubated for 1 hour at 37° C. at 5% CO2. Then, the compounds of the present invention were added in 10 μL cell media at 8 point, half-log dilution titration. The plates were incubated at 37° C. and 5% CO2 for 24 hours and then spinned at 1200 rpm for 10 min, which was followed by collecting supernatant and storing the same at −80° C. Cytokine secretion was assayed with Luminex® (brand of Multiplexing bead-based platform, Luminx® Corporation Austin Tex. USA) and Upstate Biosciences® (Upstate Biosciences®, Charlottesville, Va., USA) multi-plex kits, using a Luminex® analysis instrument. IFN MEC value for a compound was the minimum concentration at which IFN-α production stimulated by the compound reached three fold above background, as determined using the assay method above.
Regarding `COCCOc1nc(N)c2[nH]c(=O)n(Cc3cc(-c4cccc(CN5CCCC5)c4)ccc3Cl)c2n1` [AA], the minimal effective concentration is 0.1 to 1 µM. On the same count and under the same terms, next, `COCCOc1nc(N)c2[nH]c(=O)n(Cc3cc(-c4ccc(CN5CCCC5)cc4)ccc3Cl)c2n1` [AB]: 0.1 to 1 µM; `COCCOc1nc(N)c2[nH]c(=O)n(Cc3ccc(-c4ccc(CN5CCCC5)cn4)cc3)c2n1` [AC]: 0.001 µM; `COCCOc1nc(N)c2[nH]c(=O)n(Cc3ccc(-c4ccc(CN5CCCC5)nc4)cc3)c2n1` [AD]: 0.001 µM.

In the case of `CCN1CCc2ncc(-c3ccc(Cn4c(=O)[nH]c5c(N)nc(OCCOC)nc54)cc3)cc2C1` [AE], the minimal effective concentration worked out at 0.001 µM. The same measure, in the same setting: in the case of `COCCOc1nc(N)c2[nH]c(=O)n(Cc3ccc(-c4ccc(CN5CCCC5)cc4)nc3)c2n1` [AF] it was 0.001 µM; in that of `COCCOc1nc(N)c2[nH]c(=O)n(Cc3ccc(-c4cccc(CN5CCCC5)c4)nc3)c2n1` [AG], 0.001 µM. Turning to `COCCOc1nc(N)c2[nH]c(=O)n(Cc3ccc(-c4ccc(CN5CCCC5)cc4)cc3Cl)c2n1` [AH], the minimal effective concentration turned out to be 0.001 µM.

Regarding `COCCOc1nc(N)c2[nH]c(=O)n(Cc3ccc(-c4ccc(CN5CCCC5)cc4)c(Cl)c3)c2n1` [AI], the minimal effective concentration stood at 0.001 µM. Regarding `COCCOc1nc(N)c2[nH]c(=O)n(Cc3ccc(-c4ccc(CN5CCCC5)cc4)cc3F)c2n1` [AJ], the minimal effective concentration came to 0.001 µM.

For `COCCOc1nc(N)c2[nH]c(=O)n(Cc3ccc(-c4ccc(CN5CCCC5)cc4)cc3C#N)c2n1` [AK], the minimal effective concentration stood at 0.001 µM. Consider `COCCOc1nc(N)c2[nH]c(=O)n(Cc3ccc(-c4ccc(CN5CCCC5)cc4)c(F)c3)c2n1` [AL], for which the minimal effective concentration was determined as 0.001 µM. Turning to `COCCOc1nc(N)c2[nH]c(=O)n(Cc3ccc(-c4cc(CN5CCCC5)cc(C(F)(F)F)c4)cc3)c2n1` [AM], the minimal effective concentration fell in the range of 0.01 to 0.099 µM.

Turning to `COCCOc1nc(N)c2[nH]c(=O)n(Cc3ccc(-c4ccc(CN5CCCC5)cc4)c(C(F)(F)F)c3)c2n1` [AN], the minimal effective concentration stood at 0.001 µM. As for `COCCOc1nc(N)c2[nH]c(=O)n(Cc3ccc(-c4cccc(CN5CCCC5)c4)c(C(F)(F)F)c3)c2n1` [AO], the minimal effective concentration came to 0.001 µM. `COCCOc1nc(N)c2[nH]c(=O)n(Cc3ccc(-c4ccc(CCCN5CCCC5)nc4)cc3)c2n1` [AP]: the minimal effective concentration worked out at 0.001 µM.

Turning to `Nc1nc(OCC2CCOCC2)nc2c1[nH]c(=O)n2Cc1ccc(-c2cccc(CN3CCCC3)c2)cc1` [AQ], the minimal effective concentration is 0.001 µM. The same measure, in the same setting: in the case of `Nc1nc(OCC2CCOCC2)nc2c1[nH]c(=O)n2Cc1ccc(-c2ccc(CN3CCCC3)cc2)cc1` [AR] it was 0.001 µM; in that of `Nc1nc(OCC2CCOCC2)nc2c1[nH]c(=O)n2Cc1ccc(-c2ccc(CN3CCCC3)cc2)c(C(F)(F)F)c1` [AS], 0.001 µM; in that of `Nc1nc(OCC2CCOCC2)nc2c1[nH]c(=O)n2Cc1ccc(-c2cccc(CN3CCCC3)c2)c(C(F)(F)F)c1` [AT], 0.001 µM. Still for that read-out and setting: next, `Nc1nc(OCC2CCOCC2)nc2c1[nH]c(=O)n2Cc1ccc(-c2ccc(CN3CCCC3)nc2)cc1` [AU]: 0.001 µM; `Nc1nc(OCC2CCOCC2)nc2c1[nH]c(=O)n2Cc1ccc(-c2ccc(CN3CCCC3)cn2)cc1` [AV]: 0.001 µM. For `COCCOc1nc(N)c2[nH]c(=O)n(Cc3ccc(-c4ccc(CN5CCCC5)cc4)cc3)c2c1Cl` [AY], the minimal effective concentration lay within 0.01 to 0.099 µM. The same measure, in the same setting: in the case of `Nc1nc(OCC2CCOCC2)cc2c1[nH]c(=O)n2Cc1ccc(-c2ccc(CN3CCCC3)cc2)cc1` [AZ] it was 0.001 µM. With `CCCCOc1nc(N)c2[nH]c(=O)n(Cc3cccc(-c4ccccc4CN4CCCC4)c3)c2n1` [A], the minimal effective concentration is 0.1 to 1 µM. As for `Nc1nc(OCC2CCOCC2)cc2c1[nH]c(=O)n2Cc1ccc(-c2ccc(CN3CCCC3)nc2)cc1` [BA], the minimal effective concentration amounted to 0.001 µM. In the case of `Nc1nc(OCC2CCOCC2)cc2c1[nH]c(=O)n2Cc1ccc(-c2csc(CN3CCCC3)n2)cc1` [BB], the minimal effective concentration lay in the range of 0.001 to 0.009 µM. The same measure, in the same setting: in the case of `CCCCOc1cc2c([nH]c(=O)n2Cc2ccc(-c3ccc(CN4CCCC4)cc3)cc2)c(N)n1` [BC] it was 0.001 µM; in that of `Nc1nc(OCC2CCOCC2)cc2c1[nH]c(=O)n2Cc1ccc(-c2cccc(CN3CCCC3)c2)nc1` [BD], 0.001 µM; in that of `Nc1nc(OCC2CCOCC2)cc2c1[nH]c(=O)n2Cc1ccc(-c2ccc(CN3CCCC3)cc2)nc1` [BE], 0.001 µM. Turning to `CCCCOc1cc2c([nH]c(=O)n2Cc2ccc(-c3cccc(CN4CCCC4)c3)nc2)c(N)n1` [BF], the minimal effective concentration was found to be 0.001 µM. As to `CCCCOc1cc2c([nH]c(=O)n2Cc2ccc(-c3ccc(CN4CCCC4)cc3)nc2)c(N)n1` [BG], the minimal effective concentration is 0.001 µM. For the compound `CCCCOc1nc(N)c2[nH]c(=O)n(Cc3cccc(-c4cccc(CN5CCCC5)c4)c3)c2n1` [B], the minimal effective concentration was in the range of 0.01 to 0.099 µM. For `CCCCOc1nc(N)c2[nH]c(=O)n(Cc3cccc(-c4ccc(CN5CCCC5)cc4)c3)c2n1` [C], the minimal effective concentration is 0.001 to 0.009 µM.

Turning to `CCCCOc1nc(N)c2[nH]c(=O)n(Cc3ccc(-c4ccccc4CN4CCCC4)cc3)c2n1` [D], the minimal effective concentration stood at 0.001 µM. The same measure, in the same setting: next, `CCCCOc1nc(N)c2[nH]c(=O)n(Cc3ccc(-c4cccc(CN5CCCC5)c4)cc3)c2n1` [E]: 0.001 µM; `CCCCOc1nc(N)c2[nH]c(=O)n(Cc3cnc(-c4ccc(CN5CCCC5)cc4)s3)c2n1` [Example M]: 0.001 µM; `CCCCOc1nc(N)c2[nH]c(=O)n(Cc3ccc(-c4ccc(CN5CCCC5)cc4)cc3)c2n1` [F]: 0.001 µM. With `CCCCOc1nc(N)c2[nH]c(=O)n(Cc3ccc(-c4cccc(CN5CCCC5)c4)nc3)c2n1` [G], the minimal effective concentration was 0.001 µM.

As to `CCCCOc1nc(N)c2[nH]c(=O)n(Cc3ccc(-c4ccc(CN5CCCC5)cc4)nc3)c2n1` [H], the minimal effective concentration was 0.001 µM. `CCCCOc1nc(N)c2[nH]c(=O)n(Cc3ccnc(-c4ccc(CN5CCCC5)cc4)c3)c2n1` [I]: the minimal effective concentration came out at 0.001 µM.

Consider `CCCCOc1nc(N)c2[nH]c(=O)n(Cc3ccc(-c4ccc(CN5CCCC5)cc4)cn3)c2n1` [J], for which the minimal effective concentration came out at 0.001 µM. Turning to `CCCCOc1nc(N)c2[nH]c(=O)n(Cc3ccc(-c4cccc(CN5CCCC5)c4)cn3)c2n1` [K], the minimal effective concentration amounted to 0.001 µM.

Turning to `CCCCOc1nc(N)c2[nH]c(=O)n(Cc3cnc(-c4cccc(CN5CCCC5)c4)s3)c2n1` [L], the minimal effective concentration worked out at 0.001 µM.

In the case of `CCCCOc1nc(N)c2[nH]c(=O)n(Cc3ccc(-c4ccc(CN5CCCC5)nc4)cc3)c2n1` [N], the minimal effective concentration turned out to be 0.001 µM.

As to `CCCCOc1nc(N)c2[nH]c(=O)n(Cc3ccc(-c4ccc(CN5CCCC5)cn4)cc3)c2n1` [O], the minimal effective concentration was 0.001 µM. Regarding `CCCCOc1nc(N)c2[nH]c(=O)n(Cc3ccc(-c4nc(CN5CCCC5)cs4)cc3)c2n1` [P], the minimal effective concentration came to 0.001 µM. For the compound `CCCCOc1nc(N)c2[nH]c(=O)n(Cc3ccc(-c4ncc(CN5CCCC5)s4)cc3)c2n1` [Q], the minimal effective concentration was 0.001 µM. Regarding `CCCCOc1nc(N)c2[nH]c(=O)n(Cc3ccc(-c4cc(CN5CCCC5)ccc4OC)cc3)c2n1` [R], the minimal effective concentration worked out at 0.001 µM. Turning to `CCCCOc1nc(N)c2[nH]c(=O)n(Cc3ccc(-c4ccc(CN5CCCC5)c(F)c4)cc3)c2n1` [S], the minimal effective concentration amounted to 0.001 µM. As for `COCCOc1nc(N)c2[nH]c(=O)n(Cc3ccc(-c4cccc(CN5CCCC5)c4)cc3)c2n1` [T], the minimal effective concentration worked out at 0.001 µM. For the compound `COCCOc1nc(N)c2[nH]c(=O)n(Cc3ccc(-c4ccc(CN5CCCC5)cc4)cc3)c2n1` [U], the minimal effective concentration is 0.001 µM.

Turning to `COCCOc1nc(N)c2[nH]c(=O)n(Cc3ccc(-c4ccc(C(C)N5CCCC5)cc4)cc3)c2n1` (centres unmarked) [V], the minimal effective concentration came to 0.001 µM. Take `COCCOc1nc(N)c2[nH]c(=O)n(Cc3ccc(-c4cccc(CN5CCCCC5)c4)cc3)c2n1` [W]: the minimal effective concentration worked out at 0.001 µM.

In the case of `COCCOc1nc(N)c2[nH]c(=O)n(Cc3ccc(-c4ccc(CN5CCOCC5)cc4)cc3)c2n1` [X], the minimal effective concentration is 0.001 µM. For `COCCOc1nc(N)c2[nH]c(=O)n(Cc3ccc(-c4cccc(CN5CCOCC5)c4)cc3)c2n1` [Y], the minimal effective concentration lay in the range of 0.001 to 0.009 µM. For `COCCOc1nc(N)c2[nH]c(=O)n(Cc3ccc(-c4cccc(CN5CCN(C)CC5)c4)cc3)c2n1` [Z], the minimal effective concentration stood at 0.001 µM.

The experiment is the same for the next values; noted with them: IFN-α in supernatant (Luminex), three fold above background.
Turning to `COCCOc1nc(N)c2[nH]c(=O)n(Cc3ccc(-c4ccc(CN5CCCC5)cc4)cc3)c2n1` [AX], the “MEC = minimum concentration for induction of IFN-alpha = 3-fold over background” value is listed as “b (b: 1 nM-9 nM)”.

Still in this experiment, the particulars now being: IFN-α in supernatant (Luminex), three fold above background, read-out: MEC = minimum concentration for induction of IFN-alpha = 3-fold over background.
As for `COCCOc1cc2c([nH]c(=O)n2Cc2ccc(-c3cccc(CN4CCCC4)c3)cc2)c(N)n1` [AW], the minimal effective concentration is 0.001 to 0.009 µM.

These data come from patent publication US8507507B2, “Modulators of toll-like receptors” (Gilead Sciences, Inc., priority 2009, dated 2013).
